Experimental data from article PMC10006169, “A phase I trial of LXS196, a protein kinase C (PKC) inhibitor, for metastatic uveal melanoma” (British Journal of Cancer, 2023).
Where “and” joins values, the source holds several entries; their conditions need not be identical. Equal values may be shown once. Marks after values point to notes of the source that are not given here.

Test system: patients with MUM
Experiment: Grade ≥3 serious adverse events regardless of study drug relationship
Format: in vivo, human
Description: Routine safety assessments, including laboratory assessments, physical examinations, vital signs and electrocardiograms (ECGs), were conducted at regular intervals throughout the study and more frequently as needed following patient assessment by the treating physician. Adverse events (AEs) were assessed continuously according to the National Cancer Institute Common Terminology Criteria for Adverse Events (NCI-CTCAE) v4.03.

## CC1(N)CCN(c2cccnc2NC(=O)c2nc(-c3ncccc3C(F)(F)F)cnc2N)CC1 [LXS196]
100 mg QD
  Acute kidney injury SAE: 0 n (%)
  Cellulitis SAE: 0 n (%)
  Constipation SAE: 0 n (%)
  Diarrhoea SAE: 0 n (%)
  Eyelid bleeding SAE: 0 n (%)
  Hepatic cytolysis SAE: 0 n (%)
  Hepatic failure SAE: 0 n (%)
  Hypotension SAE: 0 n (%)
  Nausea SAE: 0 n (%)
  Neutrophil count decreased SAE: 0 n (%)
  Oedema peripheral SAE: 0 n (%)
  Patients with ≥1 SAE: 0 n (%)
  Pneumonia SAE: 0 n (%)
  Rash pruritic SAE: 0 n (%)
  Thrombocytopenia SAE: 0 n (%)
  Vomiting SAE: 0 n (%)
200 mg BID
  Acute kidney injury SAE: 0 n (%)
  Cellulitis SAE: 1 (16.7) n (%)
  Constipation SAE: 0 n (%)
  Diarrhoea SAE: 0 n (%)
  Eyelid bleeding SAE: 0 n (%)
  Hepatic cytolysis SAE: 0 n (%)
  Hepatic failure SAE: 0 n (%)
  Hypotension SAE: 0 n (%)
  Nausea SAE: 0 n (%)
  Neutrophil count decreased SAE: 0 n (%)
  Oedema peripheral SAE: 0 n (%)
  Patients with ≥1 SAE: 1 (16.7) n (%)
  Pneumonia SAE: 0 n (%)
  Rash pruritic SAE: 0 n (%)
  Thrombocytopenia SAE: 0 n (%)
  Vomiting SAE: 0 n (%)
200 mg QD
  Acute kidney injury SAE: 0 n (%)
  Cellulitis SAE: 0 n (%)
  Diarrhoea SAE: 0 n (%)
  Eyelid bleeding SAE: 0 n (%)
  Hepatic cytolysis SAE: 0 n (%)
  Hepatic failure SAE: 0 n (%)
  Hypotension SAE: 0 n (%)
  Nausea SAE: 1 (25.0) n (%)
  Neutrophil count decreased SAE: 0 n (%)
  Oedema peripheral SAE: 0 n (%)
  Patients with ≥1 SAE: 1 (25.0) n (%)
  Pneumonia SAE: 1 (25.0) n (%)
  Rash pruritic SAE: 0 n (%)
  Thrombocytopenia SAE: 0 n (%)
  Vomiting SAE: 1 (25.0) n (%)
300 mg BID (RDE)
  Acute kidney injury SAE: 1 (5.6) n (%)
  Cellulitis SAE: 0 n (%)
  Constipation SAE: 0 n (%)
  Diarrhoea SAE: 0 n (%)
  Eyelid bleeding SAE: 1 (5.6) n (%)
  Hepatic cytolysis SAE: 1 (5.6) n (%)
  Hepatic failure SAE: 1 (5.6) n (%)
  Hypotension SAE: 0 n (%)
  Nausea SAE: 0 n (%)
  Neutrophil count decreased SAE: 1 (5.6) n (%)
  Oedema peripheral SAE: 1 (5.6) n (%)
  Patients with ≥1 SAE: 5 (27.8) n (%)
  Pneumonia SAE: 1 (5.6) n (%)
  Rash pruritic SAE: 1 (5.6) n (%)
  Thrombocytopenia SAE: 1 (5.6) n (%)
  Vomiting SAE: 0 n (%)
300 mg QD
  Acute kidney injury SAE: 0 n (%)
  Cellulitis SAE: 0 n (%)
  Constipation SAE: 0 n (%)
  Diarrhoea SAE: 0 n (%)
  Eyelid bleeding SAE: 0 n (%)
  Hepatic cytolysis SAE: 0 n (%)
  Hepatic failure SAE: 0 n (%)
  Hypotension SAE: 0 n (%)
  Nausea SAE: 0 n (%)
  Neutrophil count decreased SAE: 0 n (%)
  Oedema peripheral SAE: 0 n (%)
  Patients with ≥1 SAE: 0 n (%)
  Pneumonia SAE: 0 n (%)
  Rash pruritic SAE: 0 n (%)
  Thrombocytopenia SAE: 0 n (%)
  Vomiting SAE: 0 n (%)
400 mg BID
  Acute kidney injury SAE: 0 n (%)
  Cellulitis SAE: 0 n (%)
  Constipation SAE: 0 n (%)
  Diarrhoea SAE: 0 n (%)
  Eyelid bleeding SAE: 0 n (%)
  Hepatic cytolysis SAE: 0 n (%)
  Hepatic failure SAE: 0 n (%)
  Hypotension SAE: 1 (16.7) n (%)
  Nausea SAE: 0 n (%)
  Neutrophil count decreased SAE: 0 n (%)
  Oedema peripheral SAE: 0 n (%)
  Patients with ≥1 SAE: 1 (16.7) n (%)
  Pneumonia SAE: 0 n (%)
  Rash pruritic SAE: 0 n (%)
  Thrombocytopenia SAE: 0 n (%)
  Vomiting SAE: 0 n (%)
500 mg QD
  Acute kidney injury SAE: 0 n (%)
  Cellulitis SAE: 0 n (%)
  Constipation SAE: 0 n (%)
  Diarrhoea SAE: 0^b n (%)
  Eyelid bleeding SAE: 0 n (%)
  Hepatic cytolysis SAE: 0 n (%)
  Hepatic failure SAE: 0 n (%)
  Hypotension SAE: 3 (27.3) n (%)
  Nausea SAE: 0 n (%)
  Neutrophil count decreased SAE: 0 n (%)
  Oedema peripheral SAE: 0 n (%)
  Patients with ≥1 SAE: 3 (27.3) n (%)
  Pneumonia SAE: 0 n (%)
  Rash pruritic SAE: 0 n (%)
  Thrombocytopenia SAE: 0 n (%)
  Vomiting SAE: 0 n (%)
800 mg QD
  Acute kidney injury SAE: 0 n (%)
  Cellulitis SAE: 0 n (%)
  Constipation SAE: 0 n (%)
  Diarrhoea SAE: 0 n (%)
  Eyelid bleeding SAE: 0 n (%)
  Hepatic cytolysis SAE: 0 n (%)
  Hepatic failure SAE: 0 n (%)
  Hypotension SAE: 1 (100) n (%)
  Nausea SAE: 0 n (%)
  Neutrophil count decreased SAE: 0 n (%)
  Oedema peripheral SAE: 0 n (%)
  Patients with ≥1 SAE: 1 (100) n (%)
  Pneumonia SAE: 0 n (%)
  Rash pruritic SAE: 0 n (%)
  Thrombocytopenia SAE: 0 n (%)
  Vomiting SAE: 0 n (%)
1000 mg QD
  Acute kidney injury SAE: 0 n (%)
  Cellulitis SAE: 0 n (%)
  Constipation SAE: 0 n (%)
  Diarrhoea SAE: 0 n (%)
  Eyelid bleeding SAE: 0 n (%)
  Hepatic cytolysis SAE: 0 n (%)
  Hepatic failure SAE: 0 n (%)
  Hypotension SAE: 1 (25.0) n (%)
  Nausea SAE: 0 n (%)
  Neutrophil count decreased SAE: 0 n (%)
  Oedema peripheral SAE: 0 n (%)
  Patients with ≥1 SAE: 2 (50.0) n (%)
  Pneumonia SAE: 1 (25.0) n (%)
  Rash pruritic SAE: 0 n (%)
  Thrombocytopenia SAE: 0 n (%)
  Vomiting SAE: 0 n (%)
All BID
  Acute kidney injury SAE: 1 (3.3) n (%)
  Cellulitis SAE: 1 (3.3) n (%)
  Constipation SAE: 0 n (%)
  Diarrhoea SAE: 0 n (%)
  Eyelid bleeding SAE: 1 (3.3) n (%)
  Hepatic cytolysis SAE: 1 (3.3) n (%)
  Hepatic failure SAE: 1 (3.3) n (%)
  Hypotension SAE: 1 (3.3) n (%)
  Nausea SAE: 0 n (%)
  Neutrophil count decreased SAE: 1 (3.3) n (%)
  Oedema peripheral SAE: 1 (3.3) n (%)
  Patients with ≥1 SAE: 7 (23.3) n (%)
  Pneumonia SAE: 1 (3.3) n (%)
  Rash pruritic SAE: 1 (3.3) n (%)
  Thrombocytopenia SAE: 1 (3.3) n (%)
  Vomiting SAE: 0 n (%)
All QD
  Acute kidney injury SAE: 0 n (%)
  Cellulitis SAE: 0 n (%)
  Constipation SAE: 0^b n (%)
  Diarrhoea SAE: 0^b n (%)
  Eyelid bleeding SAE: 0 n (%)
  Hepatic cytolysis SAE: 0 n (%)
  Hepatic failure SAE: 0 n (%)
  Hypotension SAE: 5 (13.2) n (%)
  Nausea SAE: 1 (2.6) n (%)
  Neutrophil count decreased SAE: 0 n (%)
  Oedema peripheral SAE: 0 n (%)
  Patients with ≥1 SAE: 7 (18.4) n (%)
  Pneumonia SAE: 2 (5.3) n (%)
  Rash pruritic SAE: 0 n (%)
  Thrombocytopenia SAE: 0 n (%)
  Vomiting SAE: 1 (2.6) n (%)
All patients
  Acute kidney injury SAE: 1 (1.5) n (%)
  Cellulitis SAE: 1 (1.5) n (%)
  Constipation SAE: 0^b n (%)
  Diarrhoea SAE: 0^b n (%)
  Eyelid bleeding SAE: 1 (1.5) n (%)
  Hepatic cytolysis SAE: 1 (1.5) n (%)
  Hepatic failure SAE: 1 (1.5) n (%)
  Hypotension SAE: 6 (8.8) n (%)
  Nausea SAE: 1 (1.5) n (%)
  Neutrophil count decreased SAE: 1 (1.5) n (%)
  Oedema peripheral SAE: 1 (1.5) n (%)
  Patients with ≥1 SAE: 14 (20.6%) n (%) and 14 (20.6) n (%)
  Pneumonia SAE: 3 (4.4) n (%)
  Rash pruritic SAE: 1 (1.5) n (%)
  Thrombocytopenia SAE: 1 (1.5) n (%)
  Vomiting SAE: 1 (1.5) n (%)
